# Test results from patent US12240811B2, “N-heterocyclic five-membered ring-containing capsid protein assembly inhibitor, pharmaceutical composition and uses thereof” (CHIA TAI TIANQING PHARMACEUTICAL GROUP CO., LTD., priority 2019, dated 2025).
# Tests used:
# CYP1A2 = CYP1A2 (Homo sapiens (Human), UniProt P05177); experiment: CYP450 enzyme inhibition study, CYP1A2; assay type: in vitro ADME
# Procedure: (§1) 500 μL of a final incubation system contains 50 μL of human liver microsomes (protein concentration: 0.2 mg/mL, Corning), 1 μL of mixed CYP450 specific substrates (CYP1A2, CYP 2B6, CYP 2C9, CYP2C19, CYP 2D6, and CYP 3A4), 398 μL PBS buffer (pH7.4), 1 μL specific positive inhibitor (positive control group) or the test compound (formulated with acetonitrile), and 50 μL NADPH+MgCl2. Duplicate incubation systems of 0.5 mL each were formulated for each CYP450 subtype. A total volume of 450 μL of a uniformly mixed solution of the substrate and the enzyme was formulated in each tube, and the solution and NADPH were pre-incubated at 37° C. for 5 minutes, respectively. Then 50 μL of the mixed solution of NADPH+MgCl2 was added for reaction. 50 μL of the reaction solution was taken out at 30 minutes, and the reaction was terminated with 300 μL of ice acetonitrile containing an internal standard. In addition, two control groups of 500 μL each without NADPH were prepared in parallel as a negative control group.
# (§2) Sample pre-treatment: To 50 μL of the incubated sample was added 300 μL of ice acetonitrile containing an internal standard, and then precipitated. After vortexing for 5 minutes, the sample was centrifugated (12000 rpm, 4° C.) for 10 minutes. 75 μL of the supernatant was pipetted, and 75 μL of ultrapure water was added thereto for dilution and mixed uniformly. […]
# HBV DNA in HepAD38 cells = experiment: In vitro cell HBV DNA inhibitory activity in HepAD38 cells; assay type: cell-based; conditions: Hepatitis B virus, 144 h, 6 days treatment, intracellular capsid HBV DNA by qPCR, read-out: EC50, anti-HBV activity in HepAD38 cells
# Procedure: A bottle of HepG2.2.15 (Wuhan Institute of Virology) or HepAD38 cells in good exponential growth state was taken, washed once by adding 5 mL PBS, and then thereto was added 3 mL trypsin. After digesting at room temperature for 5 min, 2 mL trypsin was discarded, and then the sample was placed in a cell culture incubator and digested for 10 min. The cells were taken out and observed under a microscope (whether the cells were individually round and there was no adhesion between the cells). 10 mL complete medium was added to terminate the digestion. After pipetting into a single cell suspension, 10 μL of the cell suspension was taken out for cell counting with a cell counter, and then diluted with a complete medium and adjusted to a cell density of 1*10^5 cells/mL. […]
# Compounds dissolved in DMSO were subjected to two-fold gradient dilution (10 concentrations in total) with complete medium. […] After lysing at room temperature for 10 min, DNA was extracted, and HBV DNA in the intracellular viral capsid was measured by real-time fluorescence quantitative PCR. The inhibition rate was calculated based on the Ct value, and the EC50 value was calculated by the four-parameter method.
# [1] = Plasma protein binding assay, human plasma; assay type: in vitro ADME
# Procedure: Formulation of plasma sample: 495 μL of blank plasmas of the corresponding species (mouse, rat, dog, monkey, and human) were drawn respectively, and thereto was added 5 μL of the corresponding test compound solution or positive control to give plasma sample solutions having a plasma drug concentration of the compound of 1 μM, and 10 μM, respectively (formulated with acetonitrile).
# The pre-treated dialysis membrane was placed in a high-throughput equilibrium dialysis device, and 100 μL of the plasma sample solution and PBS buffer solution were drawn and added respectively to both sides of the dialysis membrane (sample side and buffer side) (n=3). After the equilibration device was sealed with a film, it was incubated at 37° C. overnight (100 rpm). After dialysis equilibrium was reached, 50 μL samples were drawn from the sample side and the buffer side, respectively, and the reaction was terminated by adding ice acetonitrile containing an internal standard.
# as §2, with “plasma-side” for “incubated”, “450” for “300”, “uniformly. 1 μL of the resulting solution was injected for analysis.” for “uniformly.”
# CYP 2C9 = CYP 2C9 (Homo sapiens (Human), UniProt P11712); experiment: CYP450 enzyme inhibition study, CYP 2C9; assay type: in vitro ADME; conditions: human liver microsomes; read-out: Subtypes IC50 2C9
# Chain of CYP 2C9 (P11712 whole entry): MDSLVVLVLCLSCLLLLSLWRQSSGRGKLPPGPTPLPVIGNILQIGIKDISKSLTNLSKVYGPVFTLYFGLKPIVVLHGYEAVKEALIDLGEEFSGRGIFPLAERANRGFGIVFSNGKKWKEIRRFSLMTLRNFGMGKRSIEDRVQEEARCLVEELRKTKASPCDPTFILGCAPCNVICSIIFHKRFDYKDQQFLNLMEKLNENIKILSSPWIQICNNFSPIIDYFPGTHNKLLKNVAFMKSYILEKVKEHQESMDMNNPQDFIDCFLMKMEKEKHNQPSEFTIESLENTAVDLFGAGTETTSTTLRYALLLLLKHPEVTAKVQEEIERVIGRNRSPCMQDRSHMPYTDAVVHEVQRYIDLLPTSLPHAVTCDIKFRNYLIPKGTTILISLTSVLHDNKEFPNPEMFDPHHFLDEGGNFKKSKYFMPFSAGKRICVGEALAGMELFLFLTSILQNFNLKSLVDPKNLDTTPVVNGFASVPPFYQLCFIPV
# Procedure: as §1, §2
# [2] = In vitro cytotoxicity (CCK-8); assay type: cell-based; conditions: human, HepG2.2.15 cells
# Procedure: A bottle of HepG2.2.15 cells (Wuhan Institute of Virology) in good exponential growth state was taken, washed once by adding 5 mL PBS, and then thereto was added 2 mL trypsin. The sample was digested in a cell culture incubator, and taken out from time to time and observed under a microscope. When the cells just fell off, 1 mL trypsin was discarded. The residual liquid was placed in a cell culture incubator at 37° C. and digested for 8-15 min. The cells were taken out and observed under a microscope (whether the cells were individually round and there was no adhesion between the cells). 5 mL MEM medium was added for cell resuspension. The cells were then subjected to cell counting with a cell counter, diluted with a complete medium, and adjusted to a cell density of 2*10^5 cells/mL. Then the cells were seeded at 100 μL/well in a 96-well plate with a multi-channel pipette (the 96-well plate was coated with 50 μg/mL Collagen I solution in advance), and cultured in a constant temperature CO2 incubator for 24 h. The cells were treated by drug administration, and fresh medium containing the compound was used to replace the spent medium every 3 days. […] After 1 to 2 hours, the absorbance was detected with microplate reader at 450 nm, and the inhibition rate and the CC50 were calculated.
# Chain of CYP1A2 (P05177 whole entry): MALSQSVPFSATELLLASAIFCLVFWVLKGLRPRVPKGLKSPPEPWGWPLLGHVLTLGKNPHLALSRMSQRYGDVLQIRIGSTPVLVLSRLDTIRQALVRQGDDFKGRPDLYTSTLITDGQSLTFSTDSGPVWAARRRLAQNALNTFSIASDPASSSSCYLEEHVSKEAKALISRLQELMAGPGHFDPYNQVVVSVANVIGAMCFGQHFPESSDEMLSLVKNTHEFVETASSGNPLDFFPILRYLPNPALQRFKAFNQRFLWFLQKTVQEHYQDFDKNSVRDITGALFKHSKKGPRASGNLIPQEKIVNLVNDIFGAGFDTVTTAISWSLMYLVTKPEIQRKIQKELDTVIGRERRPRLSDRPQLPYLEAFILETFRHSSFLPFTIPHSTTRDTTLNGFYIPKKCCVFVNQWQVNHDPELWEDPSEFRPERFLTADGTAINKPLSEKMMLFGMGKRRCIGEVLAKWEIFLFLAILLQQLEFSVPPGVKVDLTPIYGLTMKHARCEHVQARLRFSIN
structure (smiles),measurement,setting,value
"Cc1[nH]c(C(=O)C(=O)N[C@@H](C)C(F)(F)F)c(C)c1C(=O)Nc1ccc(F)c(C#N)c1 [Example 1, (S)—N-(3-cyano-4-fluorophenyl)-2,4-dimethyl-5-(2-oxo-2-((1,1,1-trifluoroprop-2-yl)amino)acetyl)-1H-pyrrole-3-carboxamide]",IC50,CYP1A2,49 µM
same,EC50,HBV DNA in HepAD38 cells,0.024 µM
same,Binding rate (%) Human,[1]; 1 μM,97.3%
same,Binding rate (%) Human,[1]; 10 μM,97.3%
same,IC50,CYP 2C9,> 200 µM
same,CC50 at 6 days,[2],> 100 µM
